Measured values: US11090312B2, “Methods of treating hypogonadism with transnasal testerosterone bio-adhesive gel formulations in male with allergic rhinitis, and methods for preventing an allergic rhinitis event” (Acerus Biopharma Inc., priority 2013, dated 2021)

How the values were obtained:
[1] = Solubility of testosterone in water, solvents and oils; conditions: maximum
[2] = pKa assessment of testosterone; conditions: from molecular structure

C[C@]12CC[C@H]3[C@@H](CCC4=CC(=O)CC[C@@]43C)[C@@H]1CC[C@@H]2O [Testosterone, 17β-Hydroxyandrost-4-en-3-one]
Solubility in castor oil pure [1]: ≤ 3.6% | pKa [2]: no pKa value in the range 1-14
